The subject of this assay is primary human RPE cells. Kind of assay: Primary human RPE cells treated with 10 μM OAβ +/- ELVs (SA-β-Gal staining, qPCR). To be noted: 3 days qPCR, 7 days staining. It is filed as cell-based. How it is done: (A) In vitro experimental design: Primary human RPE cells were treated with 10 μM OAβ+/−ELVs. After 3 days, RNA was isolated and qPCR analyzed. After 7 days, cells were subjected to β-Galactosidase staining. (B) Live cell images under bright field microscopy after 7 days. (C) β-Gal staining+/−ELVs. Quantitation of % for the β-Gal positive cells. ELVs decreased positive senescent cells. (D) Gene transcription of senescence, AMD-related and autophagy genes after OAβ (1-42) exposure+/−ELVs. (*P <0.05, student t-test).
OAβ toxicity is counteracted by ELVs in primary hRPE. (A) Primary hRPE cells were treated with 10 μM OAβ with or without adding ELVs. After 3 days, the total RNA was isolated and q-PCR analyzed. After 7 days, cells were subjected to β-Galactosidase staining. (B) Live cell images of primary hRPE under bright field microscope imaging after 7 days. (C) β-Galactosidase staining of primary hRPE, +/−ELVs. Quantitation of % for the β-Gal positive cells. ELVs decreased positive senescent cells. […]
Cells were visualized using SA-β-Gal staining kit (Cat 9860, Cell Signaling Technology, MA, USA). […] Pictures were taken under brightfield microscope (Nikon Eclipse TS100) 200× magnification after the development of blue color, and cells counted in 10 different random fields per well. […]

For `CC/C=C\C[C@H](O)\C=C/C=C/C=C/[C@H](O)C/C=C\C/C=C\CCCCCCCCCCCCCCC(=O)O` [ELV-N-34], the “OAβ effects: RPE cell morphology, SASP (SA-β-Gal), senescence, AMD, MMP and autophagy gene expression” value is reported as “reverted these effects”.

These data come from patent US20220339134A1, “VERY-LONG-CHAIN POLYUNSATURATED FATTY ACIDS, ELOVANOID HYDROXYLATED DERIVATIVES, AND METHODS OF USE” (Board of Supervisors of Louisiana State University and …, priority 2019, published 2022).
